According to patent US11639503B2, “Anti-chymase aptamer and use for same” (RIBOMIC INC., priority 2017, dated 2023):

molecular target: T1, chymase purified from human skin mast cell (native, Calbiochem) (Homo sapiens, UniProt P23946); experiment: chymase enzyme activity inhibition, native substrate angiotensin I (His-Leu fluorescence); type: biochemical; conditions: Table 3; angiotensin I as substrate; mean of 2 or 3 measurements; >1 = no inhibitory activity up to 1 μM
T1 construct: Here, the native is chymase purified from human skin mast cell; purchased Calbiochem; host or cells: human skin mast cell (tissue-derived)
T1 sequence (P23946 22-247): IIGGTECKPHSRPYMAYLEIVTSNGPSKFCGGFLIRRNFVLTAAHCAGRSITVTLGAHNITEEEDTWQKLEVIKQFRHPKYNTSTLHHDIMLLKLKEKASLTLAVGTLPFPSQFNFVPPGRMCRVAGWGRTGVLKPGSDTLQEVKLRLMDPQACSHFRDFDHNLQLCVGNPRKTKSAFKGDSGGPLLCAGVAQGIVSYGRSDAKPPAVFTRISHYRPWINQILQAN
Experimental: A second method of evaluation employs a native substrate. A useful native substrate for chymase is angiotensin I. Here, His-Leu, a peptide fragment released upon degradation of angiotensin I, is fluorescently derivatized, and the fluorescence intensity therefrom is quantified.
In the assay, an enzyme reaction is carried out in 50 μL of solution C. First, 0.3-0.75 ng of chymase (recombinant, manufactured by SIGMA; or native, manufactured by Calbiochem) is diluted in solution C to obtain 5 μL chymase solution. Each nucleic acid is prepared in solution C to obtain 25 μL solutions. 5 μL of each chymase dilution and 25 μL of each nucleic acid solution are mixed, and then the mixture is incubated at 37° C. for 5 minutes. Separately, 20 μL of 125 μM angiotensin I (manufactured by Peptide Institute, Inc.) is prepared in solution C and incubated at 37° C. for 5 minutes. The angiotensin I solution is added to the mixture of chymase and nucleic acid, and the enzyme reaction is initiated. After the reaction was allowed to proceed at 37° C. for 90 minutes, 25 μL of ice-cooled 30% trichloroacetic acid solution is added to terminate the reaction. The entire mixture is centrifuged at 4° C., 14000 rpm for 10 minutes, and 30 μL of the resulting supernatant is used for the subsequent reaction for fluorescent derivatization.
After 30 μL of the supernatant is added to a 96-well plate (Black, manufactured by Costar), 15 μL of 2% o-phthalaldehyde (manufactured by SIGMA) solution in methanol and 170 μL of 0.3M NaOH solution are mixed in each well, and the plate is allowed to stand at room temperature for 10 minutes. Subsequently, 25 μL of 3M HCl solution is added to terminate the reaction. The plate is set to the microplate reader SpectraMax190 (manufactured by Molecular Devices Corporation), and the fluorescence intensity is determined at an excitation wavelength of 355 nm and a fluorescence wavelength of 460 nm.
For control, samples are treated and analyzed in the same manner in two cases: use of SEQ ID NO: 58 (negative control) and use of chymostatin, a known chymotrypsin-like serine protease inhibitor (positive control). In both cases, fluorescence intensity obtained at 0 minute reaction time serves as a blank determination. Taking the fluorescence intensity detected with the addition of an equal volume of solution C, in place of each nucleic acid, in the chymase enzyme reaction as 100%, the inhibitory rate for each test substance is calculated, and the inhibitor concentration required to cause a 50% inhibition of the enzyme activity (IC50) is determined.
Whether the nucleic acids shown by SEQ ID NO: 9 and 10 inhibit the enzyme activity of chymase was determined by the following method. Angiotensin I is converted by chymase to angiotensin II, during which a peptide fragment His-Leu is released. Since the peptide His-Leu is fluorescently derivatized by o-phthalaldehyde, its fluorescence intensity can be quantitatively measured.
The total volume of solution for an enzyme reaction in the assay was set to 50 μL, and the reaction was performed in solution C buffer. At first, native (manufactured by Calbiochem) was diluted with solution C to give 5 μL thereof. Here, the native is chymase purified from human skin mast cell. The nucleic acid was serially diluted with solution C at a concentration of 0.0027-2 μM to give 25 μL thereof. The chymase solution (5 μL) and the nucleic acid solution (25 μL) were mixed, and the mixture was incubated at 37° C. for 5 min. On the other hand, […] angiotensin I (manufactured by PEPTIDE INSTITUTE, INC.) was prepared in solution C to give 20 μL thereof, which was incubated at 37° C. for 5 min. The angiotensin I solution was added to a mixture of chymase and nucleic acid to start an enzyme reaction. The final chymase concentration of the reaction solution was 0.5 nM, and the final substrate concentration was 50 μM. […]

Substance | IC50
11 (GGGUCAGAUGAUCGGACAUAACAUUGUUGGGGUGUCAAGGCCC; 2'-fluoro at CU, RNA at AG, backbone not given here) [compound 11] | 54.7 nM
12 (GACAUAACAUUGUUGGGGUGUC; 2'-fluoro at CU, RNA at AG, backbone not given here) [compound 12] | > 1000 nM
13 (GGACAUAACAUUGUUGGGGUGUCAAGG; 2'-fluoro at CU, RNA at AG, backbone not given here) [compound 13] | > 1000 nM
14 (GGCAGAUGAUCGGACAUAACAUUGUUGGGGUGUCAAGCC; 2'-fluoro at CU, RNA at AG, backbone not given here) [compound 14] | 6.8 nM
15 (GAUGAUCGGACAUAACAUUGUUGGGGUGUCAAGCC; 2'-fluoro at CU, RNA at AG, backbone not given here) [compound 15] | 1.4 nM
16 (GGCAGAUGAUCGGACAUAACAUUGUUGGGGUGUCAA; 2'-fluoro at CU, RNA at AG, backbone not given here) [compound 16] | 2 nM
17 (GAUGAUCGGACAUAACAUUGUUGGGGUGUCAA; 2'-fluoro at CU, RNA at AG, backbone not given here) [compound 17] | 1.4 nM

same assay, conditions: Table 4; angiotensin I as substrate; mean of 2 or 3 measurements

Substance | IC50
17 (GAUGAUCGGACAUAACAUUGUUGGGGUGUCAA; 2'-fluoro at CU, RNA at AG, backbone not given here) [compound 17] | 1.4 nM
17(1) (GAUGAUCGGACAUAACAUUGUUGGGGUGUCAA; 2'-O-methyl, idT end and other modifications, positions not given here) | 44.4 nM
17(2) (GAUGAUCGGACAUAACAUUGUUGGGGUGUCAA; aptamer; 2'-O-methyl, idT end and other modifications, positions not given here) | 0.21 nM
17(3) (GAUGAUCGGACAUAACAUUGUUGGGGUGUCAA; aptamer; 2'-O-methyl, idT end and other modifications, positions not given here) | 5.66 nM
17(4) (GAUGAUCGGACAUAACAUUGUUGGGGUGUCAA; aptamer; 2'-O-methyl, idT end and other modifications, positions not given here) | 0.2 nM
17(5) (GAUGAUCGGACAUAACAUUGUUGGGGUGUCAA; aptamer; 2'-O-methyl, idT end and other modifications, positions not given here) | 0.17 nM
17(6) (GAUGAUCGGACAUAACAUUGUUGGGGUGUCAA; aptamer; 2'-O-methyl, idT end and other modifications, positions not given here) | 0.14 nM
17(7) (GAUGAUCGGACAUAACAUUGUUGGGGUGUCAA; aptamer; 2'-O-methyl, idT end and other modifications, positions not given here) | 0.17 nM
17(8) (GAUGAUCGGACAUAACAUUGUUGGGGUGUCAA; aptamer; 2'-O-methyl, idT end and other modifications, positions not given here) | 0.13 nM
17(9) (GAUGAUCGGACAUAACAUUGUUGGGGUGUCAA; aptamer; 2'-O-methyl, idT end and other modifications, positions not given here) | 0.16 nM
17(10) (GAUGAUCGGACAUAACAUUGUUGGGGUGUCAA; aptamer; 2'-O-methyl, idT end and other modifications, positions not given here) | 0.13 nM
17(11) (GAUGAUCGGACAUAACAUUGUUGGGGUGUCAA; aptamer; 2'-O-methyl, idT end and other modifications, positions not given here) | 0.14 nM
17(15) (GAUGAUCGGACAUAACAUUGUUGGGGUGUCAA; aptamer; 2'-O-methyl, idT end and other modifications, positions not given here) | 0.13 nM
17(16) (GAUGAUCGGACAUAACAUUGUUGGGGUGUCAA; aptamer; 2'-O-methyl, idT end and other modifications, positions not given here) | 0.18 nM

same assay, conditions: Table 6; angiotensin I as substrate; mean of 2 or 3 measurements

Substance | IC50
17 (GAUGAUCGGACAUAACAUUGUUGGGGUGUCAA; 2'-fluoro at CU, RNA at AG, backbone not given here) [compound 17] | 1.4 nM
